Measured values taken from article PMC12040169 (PLOS Biology, 2025).

Test: in vitro
Settings: human, hela cells, % viability

| SMILES | viability at 28.5 h, 10 µM [%] | viability at 28.5 h, 10 µM (bulk resorufin, single well) [%] |
| --- | --- | --- |
| c1ccc2c(c1)OCC(c1nn3c(Cn4cnc5ccccc54)nnc3s1)O2 (stereo not drawn) [CBK268436] | 81.4 | – |
| O=C(NCCCCn1ccnc1)c1noc2c1CCCC2 [CBK283208] | 93.9 | – |
| Clc1cccc(-c2cncc(NCC3CCOCC3)n2)c1 [CBK037237] | 103 | – |
| COc1ccc2c(c1)COC1(CCN(C(=O)Nc3ccc(N(C)C)cc3)CC1)O2 [CBK060753] | – | 98.8 |
| COc1ccc(-c2cc(C(=O)Nc3ccc(CCO)cc3)cnc2-c2cccc(C)c2)cn1 [CBK037461] | 91.8 | – |
| CCn1c(COc2ccc(C(=O)O)cc2)nc2ccccc21 [CBK267647] | 91.7 | – |
| O=S(=O)(CCSc1nc2ccccc2s1)c1nc2ccccc2s1 [CBK026908] | 92.4 | – |
| O=C(NCCSCc1ccc(Cl)cc1Cl)c1ccc(Br)cc1 [CBK264733] | 114 | – |
| O=C(O)CCc1ccc(-c2ccc(Cl)cc2)[nH]1 [CBK264781] | 100 | – |
| O=C(C1CCCC1)N1CCCC(c2nccnc2-c2cccc(C(F)(F)F)c2)C1 (stereo not drawn) [CBK286221] | 110 | – |
| Cc1nc(S(=O)(=O)N2CCC(OCC3CC3)C2)cn1C (stereo not drawn) [CBK304668] | 102 | – |
| Cc1ccc2c(c1)cc(C)c1nn(CC(=O)NC3CC3)c(=O)n12 [CBK283873] | 99.2 | – |
| CC(C)Nc1cncc(Sc2cccc(C(=O)O)c2)n1 [CBK093582] | 95.1 | – |
| Cc1nn(Cc2c(F)cccc2Cl)c(C)c1NC(=O)c1cnn2c(C(F)F)cc(-c3ccccc3)nc12 [CBK267634] | 95.3 | – |
| Cc1ncccc1COC(=O)NCCc1ccccn1 [CBK200137] | 104 | – |
| CCc1nnc(NS(=O)(=O)c2ccc(N/C=C3\C(=O)N(c4ccc(Cl)cc4)N=C3C)cc2)s1 [CBK262416] | 110 | – |
| Nc1ncc(-c2cccc(F)c2)nc1NCC1CCOCC1 [CBK063860] | 98.7 | – |
| CC(C)Cn1cnc(S(=O)(=O)N2CCC(OCc3ccncc3)C2)c1 (stereo not drawn) [CBK305456] | 105 | – |
| C/C=C/c1ccc(OCCNC2CCCC2)c(OC)c1 [CBK266399G] | 93.9 | – |
| CN(C)c1nc(Cl)c(C=Cc2cc(C(=O)O)c3ccccc3n2)s1 [CBK298272] | 110 | – |
| O=C(O)c1ccc(-n2nnnc2SCc2ccc(F)cc2)cc1 [CBK287229] | 95.8 | – |
| Cc1cc(=O)n2ncnc2n1COCCO [CBK262919] | 97.4 | – |
| S=c1n(CN2CCC(c3ccccc3)CC2)nc(Cc2ccccc2)n1-c1ccccc1 [CBK265037] | 95.2 | – |

| SMILES | viability at 28.5 h, 10 µM [%] | viability at 28.5 h, 10 µM (bulk resorufin, single well) [%] |
| --- | --- | --- |
| COC(=O)CCc1ccc(-c2cnc(N)c(-c3ccc(O)cc3)n2)cc1 [CBK122809] | 88.9 | – |
| O=C(Cn1ncc2ccccc2c1=O)N1CCC(c2ccccc2)C1 (stereo not drawn) [CBK281843] | 90.7 | – |
| O=C(O)CSc1nc2ccc(NC(=O)c3ccccc3Cl)cc2s1 [CBK299791] | 110 | – |
| CCCNC(=O)Cn1cnc2sc(C(=O)Nc3ccc(OCC)cc3)c(C)c2c1=O [CBK071920] | 91.2 | – |
| c1cnc(N2CCCC2)c(OCc2ccsc2)n1 [CBK115664] | 92.2 | – |
| Nc1ncc(-c2ccco2)nc1-c1ccc(C(=O)NCCO)cc1 [CBK064124] | 91.1 | – |
| O=C(NCc1ccccc1)C1CCN(C(=O)Cc2c(F)cccc2Cl)CC1 [CBK297919] | 96.6 | – |
| COc1ccc(COc2nc3ccccc3nc2NC(C)C)cc1OC [CBK116610] | 93.5 | – |
| CCC(=O)N1CC[C@H]2NC(=O)c3ccccc3OCC/C=C/C[C@H]2C1 [CBK291999] | 91.3 | – |
| Cc1nn(C)c(C)c1CCC(=O)NCC(C)Oc1ccccc1F (stereo not drawn) [CBK305194] | 94.3 | – |
| COc1cc(NC(=O)c2cnc(-c3ccc(Cl)cc3)c(-c3ccco3)c2)cc(C(F)(F)F)c1 [CBK037570] | 91.4 | – |
| CC(CCCC(C)(C)O)CC1OCCC(C)O1 (stereo not drawn) [CBK019986] | 115 | – |
| FC(F)(F)c1cccc(NC(=S)Nc2ccc(Cc3ccncc3)cc2)c1 [CBK267251] | 89.1 | – |
| COc1ccc(-c2nc(=S)c3c(n2CCCN(C)C)CC(C)(C)OC3)cc1 [CBK267844] | 104 | – |
| O=C(CN1CCCCCC1)N/N=C/c1ccccc1Cl [CBK261589] | 89.4 | – |
| COc1cccc(C(=O)N2CCCC2c2cc3cccnc3[nH]2)c1 (stereo not drawn) [CBK285082] | 96.4 | – |
| O=C(Oc1ccc2c(=O)c(Oc3ccc(-c4ccccc4)cc3)coc2c1)c1cccnc1 [CBK264479] | 97.6 | – |
| Cc1cc(C)n(CCNC(=O)N2CCC(Oc3cccnc3)CC2)n1 [CBK306719] | 109 | – |
| O=C(Nc1ccccc1[N+](=O)[O-])C1Cc2ccccc2CN1S(=O)(=O)c1ccc(F)cc1 (stereo not drawn) [CBK266129] | 102 | – |
| Cc1cc(C)n(-c2ccc(C(=O)NCC3(C)COC3)cc2)n1 [CBK281756] | 92.1 | – |
| Cc1ccc(-c2cncc(N3CCN(CCO)CC3)n2)cc1C [CBK065912] | 102 | – |
| Cc1c(CN2CCCC(c3cc4cccnc4[nH]3)C2)cnn1C (stereo not drawn) [CBK284683] | 99.7 | – |
| O=S(=O)(Nc1cccc(Cl)c1Cl)c1cccc2nsnc12 [CBK067296] | 86.3 | – |

| SMILES | viability at 28.5 h, 10 µM [%] | viability at 28.5 h, 10 µM (bulk resorufin, single well) [%] |
| --- | --- | --- |
| CCOC(=O)C1(c2ccccc2)CCN(C(=O)C(c2ccccc2)c2ccccc2)CC1 [CBK132202] | – | 100 |
| CCCCCSc1c(C#N)nc(N2CCOCC2)c2c1CC(C)(C)OC2 [CBK021748] | 92.1 | – |
| Cc1ccnc(NCC2CCN(CC(=O)NC3(C#N)CCCC3)C2)c1 (stereo not drawn) [CBK306128] | 85.8 | – |
| NC(=O)CCN1CCCC2(CCN(C(=O)c3ccoc3)C2)C1 (stereo not drawn) [CBK132816] | 96.9 | – |
| Cc1cc2c(cc3c(=O)n(CC(=O)N4CCCCCC4)nc(C)n32)o1 [CBK283591] | 103 | – |
| CC(C)Nc1nccnc1Sc1cccc2ccccc12 [CBK089493] | 100 | – |
| COc1cc(-c2cncc(NCCc3ccncc3)n2)cc(OC)c1OC [CBK065405] | 94.4 | – |
| CSc1nnc2c(n1)OC(/C=C/c1ccccc1)N(C(C)=O)c1ccccc1-2 (stereo not drawn) [CBK264453] | 99.7 | – |
| CC(C)(C)NC(=O)C[C@@H]1CCNC[C@@H]1Cc1cc(-c2ccccc2)on1 [CBK289145] | 86 | – |
| CC(=O)NCC(=O)N1CC[C@@H]2NC(=O)CNC(=O)C3(CCCC[C@H]2C1)CCN(C(C)=O)CC3 [CBK292014] | 91.8 | – |
| O=c1cnnc(Nc2cccc(Cl)c2Cl)[nH]1 [CBK287897] | 93 | – |
| CC(C)Nc1nccnc1Sc1ccc(N)cc1 [CBK089485] | 77.1 | – |
| O=C(c1ccco1)N1C2CCC1Cn1c(nc3ccccc3c1=O)C2 (stereo not drawn) [CBK284452] | 89.1 | – |
| CCCc1ccc(S(=O)(=O)Nc2ccc(C(=O)O)cc2)cc1 [CBK034044] | 114 | – |
| COC(=O)c1ccc(S(=O)(=O)N2CCc3ccccc3C2)cc1 [CBK068696] | 109 | – |
| Cc1nn(CCC(=O)NC(C)(C)CN2CCCC(C)C2)c(C)c1C (stereo not drawn) [CBK282676] | 91.4 | – |
| Cc1oc(NC(=O)CN2CCN(c3ccccn3)CC2)c(C#N)c1C [CBK236456] | 96.9 | – |
| O=C(O)C1CCN(C(=O)NCc2ccc(F)cc2)CC1 [CBK156070] | 117 | – |
| CSc1cc(C)c2c(c1)COC1(CCN(C(=O)NC3CCCCC3)CC1)O2 [CBK060745] | – | 97.4 |
| CC(C)(C)C1CCc2c(sc(NC(=O)CCC(=O)O)c2C(=O)Nc2ccccc2C(F)(F)F)C1 (stereo not drawn) [CBK264143] | 100 | – |
| COc1ccc([N+](=O)[O-])cc1NC(=O)CSCc1ccc(Br)cc1 [CBK268272] | 90.9 | – |
| COc1cc(-c2cncc(NCC(C)(C)CO)n2)cc(OC)c1OC [CBK037854] | 105 | – |
| Sc1nnc(COc2ccccc2)n1/N=C/c1cccnc1 [CBK265308] | 103 | – |

| SMILES | viability at 28.5 h, 10 µM [%] | viability at 28.5 h, 10 µM (bulk resorufin, single well) [%] |
| --- | --- | --- |
| Clc1nccnc1N1CCCC1 [CBK083594] | 101 | – |
| Cc1nnc(CSc2ncc(-c3ccc(Cl)cc3)n2Cc2ccccc2)o1 [CBK297154] | 103 | – |
| FC(F)(F)c1nc2ccccc2nc1SCCc1ccccn1 [CBK103731] | 109 | – |
| Cn1c(-c2ccccc2)c(C(=O)C(N)=O)c2ccccc21 [CBK288465] | 104 | – |
| O=C(CSc1nc[nH]n1)Nc1ccc(-c2nc3ccccc3s2)cc1 [CBK267146] | 81.9 | – |
| c1ccc(Oc2cccc(OCCCCN3CCNCC3)c2)cc1 [CBK266027G] | 92.6 | – |
| COc1ccc(CCCCN(C(=O)C(N)Cc2ccccc2)c2cccc3ccccc23)cc1OC (stereo not drawn) [CBK001032T] | 118 | – |
| CCc1cc(NCCc2ccc(=O)[nH]c2)nc(-c2ccc(Br)cc2)n1 [CBK144610C] | 93.3 | – |
| C[C@@H](Nc1nccnc1-c1ccc(C(=O)N2CCOCC2)cc1)c1ccccc1 [CBK037058] | 107 | – |
| CCC1CCCCN1C(=O)c1ccc(OC)c(OC)c1 (stereo not drawn) [CBK084527] | 117 | – |
| Cn1c(CO)nnc1[C@H]1C[C@@H](NC(=O)CCc2ccc(F)cc2F)C1 [CBK306796] | 86.4 | – |
| CC(=O)Nc1ccc(-c2cc(-c3ccc(NC(C)=O)cc3)nc(-c3ccc([N+](=O)[O-])cc3)n2)cc1 [CBK261273] | 91.5 | – |
| CC1CCN(S(=O)(=O)c2ccc(C(=O)O)cc2)CC1 [CBK287195] | 82.7 | – |
| COc1ccccc1CN(C)C(=O)CCc1ccc(S(N)(=O)=O)cc1 [CBK304585] | 86.8 | – |
| COc1cccc2c1OCCC2CNCCCc1ccccc1 (stereo not drawn) [CBK007716] | – | 91.8 |
| O=C1NCCc2c1[nH]c1ccccc21 [CBK101624] | 65.5 | – |
| COc1ccc(-c2c[nH]c3c(=S)[nH]cnc23)cc1 [CBK288462] | 60.5 | – |
| Cc1nc(NS(=O)(=O)c2c(C)noc2C)sc1C(=O)N1CCOCC1 [CBK050574] | 98.4 | – |
| COc1ccc(C)cc1CC(=O)N1CCc2c(sc3ncnc(N)c23)C1 [CBK305878] | 83.4 | – |
| Cc1ccc(-c2nccnc2OCCn2cccc2)cc1C [CBK106864] | 101 | – |
| COc1ccc2c(c1)C1(CC(=O)N(CCc3scnc3C)C1=O)C(=O)N2Cc1ccccc1 (stereo not drawn) [CBK075240] | 95.7 | – |
